In patent publication US5538945A, “Stimulation of hair growth by peptide copper complexes” (ProCyte Corporation, priority 1994, dated 1996):

Columns and labels:
Format in all cases: in vivo
[1] = system: C3H mice (telogen hair growth phase); assay: Stimulation of hair growth after intradermal injection of peptide-copper complexes (Example 12); details: peptide to copper 2:1, day 21; for Number of Animals Growing Hair: responders/injected mice
Protocol: The following example illustrates the stimulation of hair growth in warm-blooded animals after intradermal injection of representative peptide-copper complexes of this invention.
As in Example 11 above, the backs of C3H mice (60 days old, telogen hair growth phase) were closely clipped on day 1 using an electric clipper. A sterile saline solution containing the indicated peptide-copper complex was then injected intradermally (i.e., infiltrated under the skin) at two locations within the clipped areas of the mice. Injection at two locations provided two test locations within the clipped area of each mouse. Each injection (0.1 ml) contained between 0.75 to 1.5 mg of the peptide-copper complex within the sterile saline solution. A group of saline injected mice (0.1 ml) served as controls. Following injection of the peptide-copper complexes, indications of hair growth were seen within 10 days. The first visual signs were a darkening of the skin in a circular region surrounding the injection site. The size of this region is generally dose dependent, increasing with an increase in dose. The 0.1 ml injections used in this experiment produced a circle of hair growth measuring approximately 0.5 cm^2 to 5 cm^2 in diameter. Active hair growth occurred between 14-20 days following injection, with a maximum effect seen by day 29. Both the number of mice growing hair at the injection site and the diameter of the hair growth region were determined at day 21.

[2] = system: C3H mice (telogen hair growth phase); assay: Stimulation of hair growth by intradermal injection of peptide-copper complexes containing D-amino acids (Example 13); details: peptide to copper 1.1:1
Protocol: This example illustrates the stimulation of hair growth in warm-blooded animals by intradermal injection of AHK:Cu (1.1:1) utilizing a D-amino acids inplace of the naturally occurring L-amino acid.
In this experiment, the backs of C3H mice (60 days old, telogen hair growth phase) were closely clipped on day 1 using an electric clipper. A sterile saline solution containing AHK:Cu (1.1:1), or AHK:Cu (1.1:1) containing a D-amino acid, was then injected intradermally (i.e., infiltrated under the skin) at two locations within the clipped areas of the mice. Injection at two locations provided two test locations within the clipped area of each mouse. Each injection (0.1 ml) contained either 1.2 or 1.8 μmoles per injection of peptide-copper complex in the sterile saline solution. A group of saline injected mice (0.1 ml) served as controls. Following injection of peptide copper complex, indications of hair growth were seen within 10 days. The first visual signs were a darkening of the skin in a circular region surrounding the injection site. The size of this region is generally dose dependent, increasing with an increase in dose. The 0.1 ml injections used in this experiment produced a circle of hair growth measuring approximately 0.5 cm^2 to 5 cm^2 in diameter. […]
The degree of hair growth was determined by measuring the total area of hair growth at the two injection sites.

[3] = system: telogen cycle female C3H mice; assay: Stimulation of hair growth by topical application of a peptide-copper complex (Example 14)
Protocol: This example illustrates the stimulation of hair growth in warm-blooded animals by topical application of a peptide-copper complex. In this experiment, telogen cycle female C3H mice (60-65 days old) were prepared by clipping their posterior dorsal region (i.e., day 1). Topical application of peptide-copper complexes was performed twice per day (Monday-Friday) using a cotton-tipped applicator which delivered approximately 0.1 ml per treatment. The topical formulation used in this experiment contained the following components:
Topical application of the above formulation continued until the onset of follicle pigmentation, which proceeds the emergence of the hair shall. Measurement of the degree of response was performed using digital image analysis at weekly intervals, beginning at day 14. Data was expressed as the percent treatment area response using the following equation:
% treatment area=(growth area/treatment area)×100
For comparison purposes to illustrate the effect of hydrophobic amino acid residues on hair growth after topical application, AHK:Cu was compared to AHF:Cu. In this experiment, topical formulations containing AHK:Cu (1.1:1) and AHF:Cu (1.1:1) were prepared at a concentration of 0.5% and 0.1% (w/w) as indicated above. Hair growth response (i.e., "Percent Treatment Area") was determined at day 20, day 27 and at day 34.

[4] = system: Sprague-Dawley rat pups treated with cytosine arabinoside (Ara-C); assay: Localized maintenance of hair follicle viability by intradermal injection during Ara-C chemotherapy (Example 16); details: for Degree of Alopecia (mean) at the site of injection: day 10, grade 0 normal to 4 total loss of hair
Excerpt: The following experiment illustrates the localized maintenance of hair follicle viability (i.e., growth) by intradermal (local) injection of the peptide-copper complex AHK:Cu during treatment with the chemotherapeutic agent cytosine arabinoside (Ara-C).
In this experiment, Sprague-Dawley rat pups (age 8 days) were maintained in 5 litters (n=10-11/litter) for the duration of this study. On day 0, litters received intradermal (ID) injections of AHK:Cu (1:1) in a sterile saline solution, or a saline control (1 injection per animal, 0.05 ml per injection). Each litter contained 2 normal control animals where no AHK:Cu or Ara-C was administered (i.e., saline only). On day 1, designated animals began a series of 7 consecutive daily intraperitoneal (IP) injections with Ara-C (25 mg/kg). On day 10, all animals were evaluated for the extent of hairloss (alopecia) at the injection sites using the rating identified in Example 15.
Ara-C injections caused significant hair loss by day 5-6 in most animals. In order to evaluate the stimulatory effect of AHK:Cu, the degree of hairloss was evaluated at the injection site daily. […] Table 9 presents the results as evaluated on day 10 using the previously described rating scale, with the "Degree of Alopecia" being expressed as the average response seen at the site of injection.

[5] = topical 0.1% w/w twice per day, peptide to copper 1.1:1, day 20
[6] = topical 0.1% w/w twice per day, peptide to copper 1.1:1, day 27
[7] = topical 0.1% w/w twice per day, peptide to copper 1.1:1, day 34
[8] = topical 0.5% w/w twice per day, peptide to copper 1.1:1, day 20
[9] = topical 0.5% w/w twice per day, peptide to copper 1.1:1, day 27
[10] = topical 0.5% w/w twice per day, peptide to copper 1.1:1, day 34

Substance	Area of Hair Growth ([1]; 0.75 mg/injection intradermal)	Number of Animals Growing Hair ([1]; 0.75 mg/injection intradermal)	Area of Hair Growth ([1]; 1.50 mg/injection intradermal)	Number of Animals Growing Hair ([1]; 1.50 mg/injection intradermal)	Area of Hair Growth (total area at the two injection sites) ([2]; 1.2 μmoles per injection intradermal)	Area of Hair Growth (total area at the two injection sites) ([2]; 1.8 μmoles per injection intradermal)	Relative hair growth activity after topical administration ([3]; AHK:Cu compared to AHF:Cu, topical)	Percent Treatment Area (growth area/treatment area x 100) [3, 5]	Percent Treatment Area (growth area/treatment area x 100) [3, 6]	Percent Treatment Area (growth area/treatment area x 100) [3, 7]	Percent Treatment Area (growth area/treatment area x 100) [3, 8]	Percent Treatment Area (growth area/treatment area x 100) [3, 9]	Percent Treatment Area (growth area/treatment area x 100) [3, 10]	Degree of Alopecia (mean) at the site of injection ([4]; 0.05 mg per injection, 3.5 mg/kg intradermal day 0, peptide to copper 1:1, Ara-C 25 mg/kg IP x 7 days)	Degree of Alopecia (mean) at the site of injection ([4]; 0.10 mg per injection, 7.0 mg/kg intradermal day 0, peptide to copper 1:1, Ara-C 25 mg/kg IP x 7 days)	Degree of Alopecia (mean) at the site of injection ([4]; 0.25 mg per injection, 17.5 mg/kg intradermal day 0, peptide to copper 1:1, Ara-C 25 mg/kg IP x 7 days)	Degree of Alopecia (mean) at the site of injection ([4]; 0.50 mg per injection, 35.0 mg/kg intradermal day 0, peptide to copper 1:1, Ara-C 25 mg/kg IP x 7 days)	Histology of hair follicles at the injection site ([4]; intradermal, with Ara-C, follicles away from the injection dystrophic and non-functional)	Radius of retention of hair around the injection site ([4]; intradermal, with Ara-C, most notably in the 0.1 to 0.5 mg dose groups)
alanyl-histidyl-lysine:copper [AHK:Cu]	< 1 cm diameter	1/4	> 1 cm diameter	4/4	3.07 ± 0.76	3.24 ± 1.17	more active in stimulating hair growth	1.29 ± 1.29%	23.07 ± 18.84%	90.14 ± 2.96%	75.87 ± 7.64%	100%	100%	3.25	2.38	1.44	1.11	normal appearing and functioning anagen hair follicles	0.25 cm
alanyl-histidyl-phenylalanine:copper [AHF:Cu]	–	–	–	–	–	–	–	0.00%	0.00%	12.91 ± 12.91%	55.05 ± 17.44%	100%	100%	–	–	–	–	–	–
